Test results reported in ChEMBL document CHEMBL1157182, “Structural insights into the Plasmodium falciparum histone deacetylase 1 (PfHDAC-1): A novel target for the development of antimalarial therapy” (Bioorg Med Chem, 2008).

Assays:
Plasmodium falciparum [1] = assay: Antimalarial activity against chloroquine-sensitive Plasmodium falciparum D6 after 48 hrs by LDH reporter assay; type: functional, organism-based; settings: D6, 48 h
Plasmodium falciparum [2] = assay: Antimalarial activity against chloroquine-resistant Plasmodium falciparum W2 after 48 hrs by LDH reporter assay; type: functional, organism-based; settings: W2, 48 h

Compound | IC50 (Plasmodium falciparum [1]; read-out: IC50) [µM] | IC50 (Plasmodium falciparum [1]; read-out: pIC50 (converted)) [µM] | IC50 (Plasmodium falciparum [2]; read-out: IC50) [µM] | IC50 (Plasmodium falciparum [2]; read-out: pIC50 (converted)) [µM]
O=C(CCCCCCC(=O)NO)NO [SUBEROHYDROXAMIC ACID] | 2.23 | 2.24 | 1.53 | 1.51
O=C(NO)c1ccccc1O [SALICYLHYDROXAMIC ACID] | 35.7 | 35.5 | 51.3 | 51.3
C[C@@H]1CC[C@H]2[C@@H](C)C(=O)O[C@@H]3O[C@@]4(C)CC[C@@H]1[C@]32OO4 [ARTEMISININ] | 0.009 |  | 0.001 | 
O=C(CCCCCCCC(=O)NO)NO [AZELAIC BIS HYDROXAMIC ACID] | 5.5 | 5.5 | 3.9 | 3.89
CC(/C=C/C(=O)NO)=C\[C@@H](C)C(=O)c1ccc(N(C)C)cc1 [TRICHOSTATIN] | 0.0156 | 0.0155 | 0.01 | 0.00977
